Laboratory results as given in US20020156284A1, “Crystalline form of omeprazole” (priority 1998, published 2002).
Entries after “also recorded” stand apart in the source; their conditions may differ.

Assays:
Type in all cases: physicochemical
[1] = thermodynamic stability of crystal forms
[2] = hygroscopicity
[3] = chemical stability (thermo stability and light stability); conditions: compared with omeprazole form B
[4] = compared with omeprazole form B, especially at room temperature

## COc1ccc2[nH]c([S+]([O-])Cc3ncc(C)c(OC)c3C)nc2c1 (centres unmarked) [Omeprazole form A, 5-methoxy-2-[[(4-methoxy-3,5-dimethyl-2-pyridinyl)methyl]sulfinyl]-1H-benzimidazole]
[1]; [4]
  thermodynamic stability: thermodynamically more stable; also recorded: thermo-dynamically more stable than omeprazole form B
[2]
  hygroscopicity (absolute statement): essentially non-hygroscopic
[2]; [4]
  hygroscopicity: less hygroscopic than omeprazole form B
[3]
  chemical stability, such as thermo stability and light stability: better chemical stability

## COc1ccc2[nH]c([S+]([O-])Cc3ncc(C)c(OC)c3C)nc2c1 (centres unmarked) [Omeprazole form B, 5-methoxy-2-[[(4-methoxy-3,5-dimethyl-2-pyridinyl)methyl]sulfinyl]-1H-benzimidazole, reference compound]
[1]; under certain conditions
  conversion into the other crystal form: completely or partly, be converted into omeprazole form A
